Test results from publication PMC7024213, “Absolute Configuration of Mycosporine-Like Amino Acids, Their Wound Healing Properties and In Vitro Anti-Aging Effects” (Marine Drugs, 2019).
Counter-ions that a name gives are not always drawn. Like-named read-outs stand apart in the source and are kept apart here.

Key:
pentosidine-like AGEs [1] = experiment: Inhibition of advanced glycation end products (AGEs) formation, BSA/D-ribose fluorescence assay; format: biochemical; conditions: for IC50: BSA 10 mg/mL, D-ribose 0.5 M, 37 °C, 24 h
Experimental: The anti-AGE assay was carried out following the methodology previously reported by Séro et al.. Briefly, the samples (1 µM to 3 mM) were incubated with D-ribose (0.5 M) and bovine serum albumin (BSA, 10 mg/mL) in a Na-phosphate buffer (50 mM pH 7.4); the solutions were incubated in black microtiter plates (96 wells) at 37 °C for 24 h in a closed system before AGE fluorescence measurement. Both vesperlysines-like (λexc370 nm; λem440 nm) and pentosidine-like (λexc335 nm; λem385 nm) AGE fluorescence were measured using a microplate spectrofluorometer Infinite M200 (Tecan, Lyon, France). To avoid quenching phenomena, the fluorescence resulting from the incubation in the same conditions of BSA (10 mg/mL) and the tested extract (1 µM to 3 mM) was subtracted from each measurement. The negative control, i.e., 100% inhibition of AGEs formation, consisted of wells with only BSA. A control, i.e., no inhibition of AGEs formation, consisted of wells with BSA (10 mg/mL) and D-ribose (0.5 M). The final volume assay was 100 µL. The percentage of AGE formation was calculated as follows for each extract concentration: AGEs (%) = (fluorescence intensity [sample]−fluorescence [blank of sample]/fluorescence intensity [control]−fluorescence [blank of control]) × 100.
Dose-effect curves were best fitted with a sigmoidal dose-response equation [four parameters logistic model: bottom and top plateaus, the EC50, and the slope factor (Hill’s slope)] using Sigma Plot 14.0 software, which enabled calculation of the IC50 values. The acceptance criteria were established by the correlation coefficient (r²) > 0.97. Results were compared with those of reference products, aminoguanidine and rutin.

collagenase type V [2] = biological target: collagenase type V; design: method as in Hartmann et al. [18]; conditions: collagenase results previously published; 95% confidence interval in brackets; ref Hartmann et al. [18]; read-out: Collagenase Inhibition IC50 µM (CI 95 ±); cited from earlier work
HaCaT keratinocytes = experiment: Wound scratch assay; format: cell-based, human; conditions: 1 µM and 10 µM, after 24 h, p < 0.05 vs untreated control
Experimental: HaCaT keratinocytes were provided by Prof. Dr. Norbert E. Fusenig (DKFZ, Heidelberg, Germany) and cultivated in a DMEM medium, supplemented with FCS (10%), penicillin/streptomycin solution (1%), and non-essential amino acids (1%) (PAA, Pasching, Austria). HaCaT keratinocytes were cultivated at 37 °C, 5% CO2.
The evaluation of 4 different MAAs (compounds 1, 2, 4, and 8) on the migration of HaCaT cells was determined as described by Balekar et al.. HaCaT cells were plated into a 12-well plate at a concentration of 1 × 10^5 cells containing Dulbecco’s modified Eagle’s medium culture medium (DMEM) supplemented with 10% fetal calf serum (FCS) and incubated at 37 °C in a humidified 5% CO2 atmosphere until confluence has been reached. After attachment of the cells to the plate, medium was removed and the adherent cell layer was scratched with a sterile pipette tip. Cellular debris was removed by washing off with PBS (2 × 1 mL). Subsequently, the cells were treated with DMEM supplemented with 10% FCS containing the individual MAA test compounds at the concentrations of (10 µM to 1 µM). Control cells received only fresh DMEM +10% FCS, cells used as the positive control were treated with fresh DMEM + 20% FCS. Following, the cell cultures were incubated at […] in a humidified 5% CO2 atmosphere. Finally, the area of each scratch was determined by quantitative imaging at time 0 (just after scratching cell monolayers) and after 24 h treatment with the compounds (Leica DFC300, Wetzlar Germany; 40× magnification). The captured images were then analyzed using Image J software.
The migration rate can be expressed as the percentage of area reduction or wound closure:(2) Wound closure %=100 [Area (t0)−Area( t24)/Area (t0)]
Statistical analysis: The data were analyzed in three independent experiments and were expressed as mean ± SEM. One-way ANOVA, followed by an unpaired t-test to compare control group and treated group was performed. P-value of ≤ 0.05 was considered as statistically significant.

[3] = system: UV-A induced MMPs such as MMP-1 and elastase; design: method as in Ryu et al. [20]; conditions: concentrations at 40 µM; ref Ryu et al. [20]; cited from earlier work
collagenase type V [4] = experiment: Collagenase inhibition assay (spectrofluorometric); format: biochemical; conditions: for IC50: collagenase type V, MMP-2 fluorogenic substrate, 1% DMSO, 95% confidence interval in brackets, read-out: Collagenase Inhibition IC50 µM (CI 95 ±)
Experimental: The assay was carried out according to a previously published protocol by Hartmann et al.. All required reagents for the assay were purchased from Sigma Aldrich. Both enzyme (collagenase type V; C-9263) and substrate (SCP0192 MMP-2 substrate, Sigma Aldrich) were dissolved in the reagent buffer (Tris–HCl; 10 mM pH 7.3) and diluted from stock solutions to 100 μg/mL (initial) enzyme concentration and 55.55 μg/mL (initial) substrate concentration prior to use. Test samples and standard inhibitor phosphoramidon disodium salt used as positive control were dissolved in H2O/DMSO, always maintaining a final DMSO concentration of 1% in each well. The final reaction volume of 100 μL was composed of 25 μL buffer solution, and 25 μL sample/positive controls which were added first followed by 25 μL enzyme. This mixture was incubated for 10 min at 37 °C. Finally, 25 µL of substrate were added to initiate the readout reaction. The substrate which carries a fluorogenic residue (7-methoxycoumarin-4-yl acetic acid) is continuously dissipated by the enzyme collagenase. Measurements are taken after 30 min at an excitation wavelength of λ = 320 nm and λ = 400 nm emission wavelengths in a 96-well microplate format using an Infinite F 200 pro microplate reader equipped with filter-based technology (Tecan, Männedorf, Switzerland). An untreated control group containing 1% DMSO without sample was set to 100% enzyme activity. Blank wells without enzyme were measured accordingly and subtracted from the fluorescent units of each well. Two positive controls were used. First, the well-established phosphoramidon disodium salt and second, to include natural product based inhibitors, rutin and EGCG were used. Measurements were performed in triplicates using 96 well plates, and each substance was measured in three independent experiments. […] IC50 values were calculated by fitting data (log (Inhibitor) vs. response–variable slope) using GraphPad Prism (GraphPad Software, San Diego, CA, USA).
Statistics: The data were analyzed at least in three independent experiments and were expressed as mean ± SEM. A Shapiro Wilk normality test was performed to confirm the Gaussian distribution of the data. One-way ANOVA, followed by a Dunett’s multiple comparison test in GraphpadPrism 5 were performed to clarify statistical significance. p-Value of ≤ 0.05 was considered statistically significant.

collagenase = conditions: cited from earlier work
[5] = system: hen egg white lysozyme (HEWL); conditions: read-out: Inhibition of glycation-dependent cross-linking of HEWL, IC50; literature finding, reference not given; cited from earlier work
pentosidine-like AGEs [6] = conditions: cited from earlier work
[7] = read-out: Collagenase inhibition IC50
[8] = concentration range 1 to 350 µM

| SMILES | IC50 (pentosidine-like AGEs [1]) [µM] | IC50 (collagenase type V [4]) [µM] | further results |
| --- | --- | --- | --- |
| N=C(N)NN [Aminoguanidine, reference compound] | 1400 |  |  |
| COC1=C(N[C@H](C(=O)O)[C@@H](C)O)C[C@](O)(CO)CC1=NCC(=O)O [Compound 2, porphyra-334] | 90 |  | Inhibition of UV-A induced MMPs such as MMP-1 and elastase [3]: concentration-dependent inhibition; Procollagen production [3]: increase in procollagen production; IC50 (collagenase type V [2]): 106 µM; Migration / wound closure in scratch assay (words) (HaCaT keratinocytes): significant migration and narrowing of the scratch area |
| OC[C@H]1O[C@@H](Oc2cc(O)cc(/C=C/c3ccc(O)c(O)c3)c2)[C@H](O)[C@@H](O)[C@@H]1O [E-astringin] |  |  | IC50 (collagenase; [7]): 125 µM |
| OC[C@H]1O[C@@H](Oc2cc(O)cc(/C=C/c3ccc(O)cc3)c2)[C@H](O)[C@@H](O)[C@@H]1O [E-piceid] |  |  | IC50 (collagenase; [7]): 259 µM |
| O=C(O[C@@H]1Cc2c(O)cc(O)cc2O[C@@H]1c1cc(O)c(O)c(O)c1)c1cc(O)c(O)c(O)c1 [Epigallocatechingalleate, reference compound] |  | 46.6 | IC50 (collagenase; used as positive control in many publications, read-out: Collagenase inhibition IC50 (published values)): ~220 µM |
| COC1=C(NCC(C)O)C[C@](O)(CO)CC1=NCC(=O)O (stereo partly drawn) [aplysiapalythine A] |  |  | Collagenase inhibition (collagenase type V [4]; [8]): good inhibition |
| COC1=C(NCC(=O)O)CC(O)(CO)CC1=NCCO (stereo not drawn) [asterina-330] |  |  | Collagenase inhibition (collagenase type V [4]; [8]): good inhibition |
| COC1=C(NCC(=O)O)CC(O)(CO)CC1=NCC(=O)O (stereo not drawn) [mycosporine-2-glycine] |  |  | IC50 [5]: 1610 µM |
| COC1=C(NCC(=O)O)C[C@@](O)(CO)CC1=O [mycosporine-glycine] |  |  | Collagenase inhibition (collagenase type V [4]; [8]): very pronounced inhibition |
| COC1=C(NCC(=O)O)CC(O)(CO)CC1=N (stereo not drawn) [palythine] |  |  | Anti-AGEs activity (pentosidine-like AGEs [1]; concentration range 1 µM to 3 mM): weakest effect |
| O=c1c(O)c(-c2ccc(O)c(O)c2)oc2cc(O)cc(O)c12 [quercetin] |  |  | AGEs inhibition (pentosidine-like AGEs [6]): strong AGEs inhibitor |
| O=C1c2c(O)cc(O)cc2O[C@H](c2ccc(O)c(OC3O[C@H](CO)[C@@H](O)[C@H](O)[C@H]3O)c2)[C@H]1O (stereo partly drawn) [taxifolin 3′-O-glucopyranoside] |  |  | IC50 (collagenase; [7]): 141 µM |
| O=C1c2c(O)cc(O)cc2OC(c2ccc(O)c(O)c2)C1O (stereo not drawn) [taxifolin] |  |  | IC50 (collagenase; [7]): 193 µM |

Second part, led by results:

| IC50 (pentosidine-like AGEs [1]) [µM] | IC50 (collagenase type V [4]) [µM] | SMILES | further results |
| --- | --- | --- | --- |
| 103 |  | COC1=C(N[C@@H](CO)C(=O)O)C[C@](O)(CO)CC1=NCC(=O)O [Compound 1, Shinorine] | IC50 (collagenase type V [2]): 104 µM; Migration / wound closure in scratch assay (words) (HaCaT keratinocytes): significant migration and narrowing of the scratch area |
| 150 | 250 | CNC1=C(OC)C(=N[C@H](C(=O)O)[C@@H](C)O)C[C@](O)(CO)C1 [Compound 3, mycosporine-methylamine-threonine] |  |
| 75 | 158 | COC1=C(N[C@@H](C)C(=O)O)C[C@](O)(CO)CC1=NCC(=O)O [Compound 4, mycosporine-alanine-glycine] | Migration / wound closure in scratch assay (words) (HaCaT keratinocytes): significant migration and narrowing of the scratch area |
| 400 | 80.7 | COC1=C(NC[C@@H](C)O)C[C@](O)(CO)CC1=NCC(=O)O [Compound 5, aplysiapalythine A] |  |
| 125 | 70.9 | COC1=C(NCCO)C[C@](O)(CO)CC1=NCC(=O)O [Compound 6, asterina-330] |  |
|  | 104 | COC1=C(N[C@H](C(=O)O)[C@@H](C)O)C[C@](O)(CO)CC1=N[C@@H](CCC(N)=O)C(=O)O [Compound 8, bostrychine-B] | Migration / wound closure in scratch assay (words) (HaCaT keratinocytes): significant migration and narrowing of the scratch area; Migration / wound closure in scratch assay (words) (HaCaT keratinocytes; listed as bostrychine B): slightly higher wound closure ability |
| 85 | 118 | COC1=C(N[C@H](C(=O)O)[C@@H](C)O)C[C@](O)(CO)CC1=N[C@@H](CCC(=O)O)C(=O)O [Compound 10, bostrychine-D] |  |
| 150 | 163 | COC1=C(NC[C@@H](C)O)C[C@@](O)(CO)CC1=N[C@@H](CCC(=O)O)C(=O)O [Compound 11, bostrychine-E] |  |
| 200 | 90 | COC1=C(NCCC(=O)O)C[C@@](O)(CO)CC1=N[C@H](C(=O)O)[C@@H](C)O [Compound 12, bostrychine-F] |  |
|  | 1.9 | CC(C)C[C@H](NP(=O)(O)O[C@@H]1O[C@@H](C)[C@H](O)[C@@H](O)[C@H]1O)C(=O)N[C@@H](Cc1c[nH]c2ccccc12)C(=O)O [Phosphoramidon, phosphoramidon disodium salt, reference compound] |  |
| 85 |  | C[C@@H]1O[C@@H](OC[C@H]2O[C@@H](Oc3c(-c4ccc(O)c(O)c4)oc4cc(O)cc(O)c4c3=O)[C@H](O)[C@@H](O)[C@@H]2O)[C@H](O)[C@H](O)[C@H]1O [Rutin, reference compound] | Collagenase inhibition (collagenase type V [4]; at 100 µM, 1% DMSO control group set to 100% enzyme activity): 100 µM -> 52% Inhibition * |
